In patent publication US10500158B2, “Cationic lipid” (Kyowa Hakko Kirin Co., Ltd., priority 2014, dated 2019):

How the values were obtained:
[1] = Average particle size of the preparations, measured with a particle size measurement apparatus; assay type: physicochemical; settings: preparations of Examples 21 and 22 (composition containing the compound and f7 siRNA-1)
Excerpt: Each sample was weighed to be compound 1/PEG-DMPE Na (manufactured by NOF Corp.)=57.3/5.52 mmol/L, and suspended in an aqueous solution containing hydrochloric acid and ethanol. A homogenous suspension was obtained by repeating stirring with a vortex stirring mixer and heating. This suspension was passed through a 0.05-μm polycarbonate membrane filter at room temperature to obtain a dispersion of compound 1/PEG-DMPE Na particles (liposomes). The average particle size of the obtained liposomes was measured with a particle size measurement apparatus to confirm that the average particle size fell within the range of 30 nm to 100 nm. The obtained liposome dispersion and the f7 siRNA-1 solution were mixed at a ratio of liposome dispersion:f7 siRNA-1 solution=3:1. A 3-fold amount of distilled water was further added thereto and mixed to prepare a compound 1/PEG-DMPE Na/f7 siRNA-1 complex dispersion.
The average particle sizes of the preparations (compositions) obtained in Examples 21 and 22 were measured using a particle size measurement apparatus.
The average particle sizes of the preparations (compositions) obtained in Example 23 and Comparative Example 1 were measured using a particle size measurement apparatus.

[2] = tested on: factor VII gene; assay: Test Example 1: in vivo drug efficacy evaluation, factor VII protein concentration in plasma after i.v. administration of f7 siRNA-1 preparations; design: species or system Mice (Balb/c); settings: mice, intravenous, 0.03 and/or 0.3 mg/kg siRNA (f7 siRNA-1), 48 hours after administration; FIGS. 1 and 2
Protocol: The preparations (compositions containing compounds 1, 2, and 4 to 7, respectively, and f7 siRNA-1) obtained in Examples 21 and 22 were each subjected to an in vivo drug efficacy evaluation test by a method given below. Each preparation was used after being diluted with physiological saline according to the test.
Mice (Balb/c, obtained from CLEA Japan, Inc.) were acclimatized and raised. Then, each preparation was intravenously administered at 0.03 and/or 0.3 mg/kg in terms of the siRNA concentration to the mice. 48 hours after the administration, blood was collected, and the collected blood was centrifuged at 8000 rpm at 4° C. for 8 minutes using a high-speed refrigerated microcentrifuge (TOMY MX305; manufactured by Tomy Seiko Co., Ltd.). Absorbance in standard solutions and the plasma samples was measured in ARVO (405 nm) using BIOPHEN VII kit (manufactured by ANIARA, cat#: A221304) according to the method described in the instruction manual of the product. A calibration curve was prepared from the obtained absorbance, and the factor VII protein concentration in plasma was calculated. n=3 for each group.

Row | Structure (SMILES) | Particle size of obtained preparation (nm) [1] | expression of the factor VII gene (factor VII protein concentration in plasma) [2]
1 | CCCCC/C=C\C/C=C\CCCCCCCCC1(CCCCCCCC/C=C\C/C=C\CCCCC)CN(C)C1 [Compound 1, 1-Methyl-3,3-bis[(9Z,12Z)-octadeca-9,12-dien-1-yl]azetidine] | 113 nm | strongly suppressed
2 | CCCCC/C=C\C/C=C\CCCCCCCCC1(CCCCCCCC/C=C\C/C=C\CCCCC)CN(CCC)C1 [Compound 2, 3,3-Bis[(9Z,12Z)-octadeca-9,12-dien-1-yl]-1-propylazetidine] | 116 nm | strongly suppressed
3 | CCCCC/C=C\C/C=C\CCCCCCCCC1(CCCCCCCC/C=C\C/C=C\CCCCC)CN(C(=O)OCCCN(C)C)C1 [Compound 4, 3-(Dimethylamino)propyl 3,3-bis[(9Z,12Z)-octadeca-9,12-dien-1-yl]azetidine-1-carboxylate] | 127 nm | 
4 | CCCCCCCC/C=C\CCCCCCCCC1(CCCCCCCC/C=C\CCCCCCCC)CN(C)C1 [Compound 5, 1-Methyl-3,3-bis[(Z)-octadec-9-en-1-yl]azetidine] | 115 nm | 
5 | CCCCCC/C=C\CCCCCCCCC1(CCCCCCCC/C=C\CCCCCC)CN(C)C1 [Compound 6, 3,3-Bis[(Z)-hexadec-9-en-1-yl]-1-methylazetidine] | 123 nm | 
6 | CCCCC/C=C\C/C=C\CCCCCCCCCCC1(CCCCCCCCCC/C=C\C/C=C\CCCCC)CN(C)C1 [Compound 7, 3,3-Bis[(11Z,14Z)-icosa-11,14-dien-1-yl]-1-methylazetidine] | 128 nm | 
